A short description of assay [1]: Antitumor activity against human OC3-IV2 cells xenografted in CB17-Prkdcscid/CrlNarl mouse assessed as reduction in tumor size at 2 mg/kg,ip administrated once every 3 days for 2 weeks. It is filed as functional. Also on record: scale not given: the % may be the effect or the level left.
Another assay concerns NCI-H1299. The assay can be described thus: Cytotoxicity against human NCI-H1299 cells incubated for 48 hrs by MTT reagent based spectrophotometric analysis. It is filed as functional, cell-based. The following applies: NCI-H1299, 48 h. A general note: Tetrazolium assays rely on reduction of a dye to a coloured formazan, in cell work by metabolically active cells.
For a further assay, the system named is U-87 MG. Nature of the assay: Cytotoxicity against human U87 cells incubated for 48 hrs by MTT reagent based spectrophotometric analysis. It is filed as functional, cell-based, U-87MG ATCC.
The nature of assay [2]: Cytotoxicity against human OC3-IV2 cells incubated for 48 hrs by MTT reagent based spectrophotometric analysis. The format is functional, cell-based. As to conditions: OC3-IV2, 48 h.
Assay [3] concerns PC-3. Nature of the assay: Cytotoxicity against human PC-3 cells incubated for 48 hrs by MTT reagent based spectrophotometric analysis. It is filed as functional, cell-based. As to conditions: PC-3, 48 h.
Assay [4] concerns MCF7. The assay can be described thus: Antiproliferative activity against human MCF7 cells assessed as inhibition of cell growth incubated for 24 hrs by MTT assay. It is filed as functional, cell-based. The following applies: MCF7, 24 h.
For assay [5], the system named is HCT-116. The assay can be described thus: Antiproliferative activity against human HCT-116 cells assessed as inhibition of cell growth incubated for 24 hrs by MTT assay. The format is functional, cell-based. The following applies: HCT-116, 24 h.
In the next assay the test system is J82. Nature of the assay: Antiproliferative activity against human J82 cells assessed as inhibition of cell growth incubated for 72 hrs by MTT assay. The format is functional, cell-based. As to conditions: J82, 72 h.
Another assay relates to SK-MES-1. The assay can be described thus: Antiproliferative activity against human SK-MES-1 cells assessed as inhibition of cell growth incubated for 72 hrs by MTT assay. It is filed as functional, cell-based. The following applies: SK-MES-1, 72 h.
In another assay the test system is HL-60. Nature of the assay: Antiproliferative activity against human HL-60 cells assessed as inhibition of cell growth incubated for 72 hrs by MTT assay. The format is functional, cell-based. The following applies: HL-60, 72 h.
Another assay relates to AGS. Nature of the assay: Antiproliferative activity against human AGS cells assessed as inhibition of cell growth incubated for 72 hrs by MTT assay. The format is functional, cell-based.
Another assay concerns SCC-9. Nature of the assay: Cytotoxicity against human SCC-9 cells incubated for 48 hrs by MTT assay. It is filed as functional, cell-based. As to conditions: SCC-9, 48 h.
In the next assay the test system is A253 cell line. Nature of the assay: Cytotoxicity against human A253 cell line incubated for 48 hrs by MTT assay. As to conditions: A253, 48 h. The format is functional, cell-based.
For assay [6], the system named is SCC-25. The assay can be described thus: Cytotoxicity against human SCC-25 cells incubated for 48 hrs by MTT assay. The format is functional, cell-based. As to conditions: SCC-25, 48 h.
The subject of assay [7] is SCC-25. Nature of the assay: Induction of apoptosis in human SCC-25 cells at 7 uM incubated for 48 hrs by annexin V-FITC/PI staining based flow cytometry relative to control. It is filed as functional. In general terms: A flow cytometer gives signals particle by particle.
Assay [8] has as its system HepG2. The assay can be described thus: Antitumor activity against human HepG2 cells xenografted in BALB/c mouse assessed as reduction in tumor growth at 10 to 20 mg/kg,iv administrated once every 3 days for 3 weeks. The format is functional. Set-up: scale not given: the % may be the effect or the level left. As to conditions: dose 10-20 mg/kg.
The next assay deals with SK-OV-3. Nature of the assay: Cytotoxicity against human SK-OV-3 cells assessed as reduction in cell viability incubated for 48 hrs by MTT reagent based spectrophotometric analysis. It is filed as functional. As to conditions: SK-OV-3, 48 h.
In assay [9] the test system is HepG2. The assay can be described thus: Cytotoxicity against human HepG2 cells assessed as reduction in cell viability incubated for 48 hrs by MTT reagent based spectrophotometric analysis. It is filed as functional. As to conditions: HepG2, 48 h.
Assay [10] relates to HCT-116. Nature of the assay: Cytotoxicity against human HCT-116 cells assessed as reduction in cell viability incubated for 48 hrs by MTT reagent based spectrophotometric analysis. The format is functional. As to conditions: HCT-116, 48 h.
The test system of assay [11] is Bel-7402. Nature of the assay: Cytotoxicity against human Bel-7402 cells incubated for 48 hrs by MTT assay. The following applies: Bel-7402, 48 h. The format is functional, cell-based.
For assay [12], the system named is HCT-15. The assay can be described thus: Cytotoxicity against human HCT-15 cells incubated for 48 hrs by MTT assay. The following applies: HCT-15, 48 h. It is filed as functional, cell-based.
Assay [13] has as its system HCT-116. Nature of the assay: Cytotoxicity against human HCT-116 cells incubated for 48 hrs by MTT assay. It is filed as functional, cell-based. The following applies: HCT-116, 48 h.
A further assay deals with MDA-MB-231. The assay can be described thus: Cytotoxicity against human MDA-MB-231 cells incubated for 48 hrs by MTT assay. It is filed as functional, cell-based. The following applies: MDA-MB-231, 48 h.
For the next assay, the system named is A2780. The assay can be described thus: Cytotoxicity against human A2780 cells incubated for 48 hrs by MTT assay. The format is functional, cell-based. As to conditions: A2780, 48 h.
The subject of assay [14] is Bel-7402. The assay can be described thus: Antiproliferative activity against human Bel-7402 cells assessed as inhibition of cell growth incubated for 72 hrs by MTT reagent based microplate reader assay. The format is functional. The following applies: Bel-7402, 72 h.
In assay [15] the test system is HCT-15. The assay can be described thus: Antiproliferative activity against human HCT-15 cells assessed as inhibition of cell growth incubated for 72 hrs by MTT reagent based microplate reader assay. It is filed as functional. As to conditions: HCT-15, 72 h.
The subject of the next assay is MGC-803. Nature of the assay: Antiproliferative activity against human MGC-803 cells assessed as inhibition of cell growth incubated for 72 hrs by MTT reagent based microplate reader assay. The format is functional. The following applies: MGC-803, 72 h.
The test system of assay [16] is MCF7. The assay can be described thus: Antiproliferative activity against human MCF7 cells assessed as inhibition of cell growth incubated for 72 hrs by MTT reagent based microplate reader assay. It is filed as functional. The following applies: MCF7, 72 h.
For the next assay, the system named is HeLa. Nature of the assay: Cytotoxicity against human HeLa cells assessed as reduction in cell viability incubated for 48 hrs by MTT assay. It is filed as functional, cell-based.
In assay [17] the test system is MCF7. The assay can be described thus: Cytotoxicity against human MCF7 cells assessed as reduction in cell viability incubated for 48 hrs by MTT assay. It is filed as functional, cell-based. As to conditions: MCF7, 48 h.
A further assay concerns DU-145. Nature of the assay: Cytotoxicity against human DU-145 cells assessed as reduction in cell viability incubated for 48 hrs by MTT assay. The format is functional, cell-based. As to conditions: DU-145, 48 h.
Assay [18] has as its system HCT-15. The assay can be described thus: Cytotoxicity against human HCT-15 cells assessed as reduction in cell viability incubated for 48 hrs by MTT assay. The format is functional, cell-based. The following applies: HCT-15, 48 h.
Assay [19] relates to PC-3. Nature of the assay: Cytotoxicity against human PC-3 cells assessed as reduction in cell viability incubated for 48 hrs by MTT assay. It is filed as functional, cell-based. As to conditions: PC-3, 48 h.

The text below walks through data of ChEMBL document CHEMBL5512632, “Unlocking the potential of 1,4-naphthoquinones: A comprehensive review of their anticancer properties” (Eur J Med Chem, 2024).

The structures appear in SMILES notation.

With `CC1=CC(=O)c2cccc(O)c2C1=O`, in assay [1], the Activity stood at 50%. Besides, the IC50 with NCI-H1299 came to 1.5 µM; in the assay with U-87 MG, 2.4 µM; in assay [2] it was 5.4 µM; in the assay with PC-3 [3], 6 µM.

Turning to `CC1=C/C(=N\NC(=O)CCCCCCCCCC(=O)NN)c2ccccc2C1=O`, the figures for the half-maximal inhibitory concentration (IC50) in the assay with MCF7 [4] and in the assay on HCT-116 [5] were 56 µM and 75 µM, respectively.

Consider `CC(=O)N(C1=C2NCCN=C2c2ccccc2C1=O)c1ccccc1`, for which the IC50 worked out at 2 µM with J82, 6.4 µM in the assay on SK-MES-1, 11.9 µM in the assay with HL-60 and 15.5 µM in the assay on AGS.

Consider `Cc1cn([C@H]2C[C@H](N=[N+]=[N-])[C@@H](COC3=C(Cl)C(=O)c4ccccc4C3=O)O2)c(=O)[nH]c1=O`, for which the IC50 with SCC-9 was 8 µM; with A253 cell line, 5.99 µM; in the assay on SCC-25 [6], 6.15 µM. This compound also gave an Activity in the assay on SCC-25 [7] of 30%.

Consider `CCCNC(=O)C(Cc1ccccc1)NC1=C/C(=N/O)c2ccccc2C1=O` (stereo not drawn), for which the Activity in the assay with HepG2 [8] is given as above 60%. Besides, the figures for the IC50 in the assay with SK-OV-3, with HepG2 [9] and in the assay on HCT-116 [10] were 0.48 µM, 0.16 µM and 0.18 µM, respectively.

Turning to `CCCCCCCCC(OCCC(C)C)c1ccc2c(c1OC)/C(=N\O)C=C/C2=N\O` (stereo not drawn), the IC50 is 5.11 µM in the assay with Bel-7402 [11]; 36.4 µM in the assay with HCT-15 [12]; 21.5 µM in the assay on HCT-116 [13]; 0.66 µM with MDA-MB-231; 8.26 µM with A2780.

With `CCCCCCCC(Oc1cc(OC)c(OC)c(OC)c1)c1ccc2c(c1)/C(=N\O)C=C/C2=N\O` (stereo not drawn), the IC50 with Bel-7402 [14] was found to be 4.21 µM; in the assay with HCT-15 [15] it was 1.64 µM; in the assay on MGC-803, 3.28 µM; in the assay with MCF7 [16] it was 6.94 µM.

As to `CO/N=C1\C(c2cc3c(cc2OC)OCO3)=CC(=O)c2cc3c(cc21)OCO3`, the IC50 is 0.104 µM in the assay with HeLa; 0.196 µM with MCF7 [17]; 0.023 µM with DU-145; 0.055 µM in the assay on HCT-15 [18]; 0.319 µM in the assay on PC-3 [19].

Broadly, the IC50 is the concentration at which inhibition is half-maximal.
